The results in this text go back to EP1022028A1, “SUSTAINED-RELEASE ORAL PREPARATION” (Takeda Chemical Industries, Ltd., priority 1997, dated 1999).

Data set [1] is described as follows: acute oral toxicity (LD50) in rats. The conditions noted are these: rat, in vivo, rats (Wistar). The text has this:
(§1) The sustained-release oral preparation of the present invention is low in toxic potential and can be administered safely to mammals (e.g. cat, bovine, dog, horse, goat, monkey, human) requiring the treatment or prophylaxis of diabetes or inhibition of postprandial hyperglycemia. Particularly, the valiolamine derivative for use in the present invention, for example [2-hydroxy-1-(hydroxymethyl)ethyl]valiolamine (voglibose), is very high in safety rating with the acute oral toxicity (LD50) values in mice (NRM1) and rats (Wistar) being 14.7 ∼ 21.5 grams/kilogram body weight (mice) and about 20 grams/kilogram body weight (rats), respectively.

Data set [2] is described as follows: acute oral toxicity (LD50) in mice. The note with it: mouse, in vivo, mice (NRM1).
Text: as §1

Regarding `OCC(CO)N[C@H]1C[C@](O)(CO)[C@@H](O)[C@H](O)[C@H]1O` [voglibose, 1L(1S)-(1(OH)2,3,5/1,3)-5-[[2-hydroxy-1-(hydroxymethyl)ethyl]amino]-1-C-(hydroxymethyl)-1,2,3,4-cyclohexanetetrol], the LD50 (as a rule, the dose at which mortality reaches 50%) is around 20000 mg/kg in data set [1] and 14700 to 21500 mg/kg in data set [2].
